Results as given in patent US11311560B2, “Cyclic plasmenylethanolamines” (MED-LIFE DISCOVERIES LP, priority 2017, dated 2022).
“Also recorded” adds a separate entry of the source.

Experiments:
Pex7 hypomorphic animals = conditions: 50 mg/kg/day for 2 months; cited from earlier work
Pex7 null animals = conditions: very high doses (over 3000 mg/kg); cited from earlier work
Pex7 hypomorph/null mice [1] = assay: Open field test after 4 weeks oral treatment; type: in vivo, mouse; conditions: 50 mg/kg oral gavage, 5 days per week, 5 minutes test
Description: (§1) The Pex7 hypomorph/null model is a hypomorphic (B6;129S6-Pex7^tm2.3Brav/s9) mouse model on a mixed background (C57BL/6NCrl and 129S6/SvEvTac). The hypomorphic allele in Pex7 hypomorph/null was generated by inserting an inverse neo cassette into intron 2 and lox P sites surrounding exon 3. The Pex7 null allele was generated using (B6.C-Tg(cmv-cre)1Cgn/J) mouse. The Pex7 hypomorph/null mouse model has 90% survival, 0.016-0.257% of wild type Pex7 mRNA levels and 20-30% plasmalogen levels Pex7 hypomoprh/null mice (3-4 months); and wild-type animals, males and females included in treatments and behavioral tests. Pex7 hypomorph/null mice were randomly assigned, after a baseline open field test, into 3 treatment groups: PPI-1040, PPI-1011, and vehicle controls, n=6 mice per group). PPI-1011 or PPI-1040 at 50 mg/kg was given by oral gavage 5 days per week (Monday-Friday) for 4 weeks. During the treatment period, animals were weighed weekly and observed for signs of distress. The open field test was performed at the end of treatment. To avoid selection bias, data analysis was performed only at the study end. Animals were sacrificed after a 24-hour post the last dose.
The open field test is a behavioral test used to evaluate the general locomotor activity, exploratory and anxiety-like behaviour of mice in response to a novel environment. The animal is placed inside a custom made square, gray acrylic box measuring 40×40×40 cm and allowed to move freely for 5 minutes while being recorded by an overhead camera (camera model). The footage was analyzed by an automated tracking system (Any-maze Video Tracking Software, Stoelting Co, Wood Dale, Ill., USA), for total distance traveled (meters) & activity (mobility in seconds) time. The total distance traveled is the total distance that animal traveled during the test and the activity measures the amount of time the animal was active during the test.

[2] = healthy animals; cited from earlier work
[3] = test system: Pex7 homozygous hypomorphic animals (Pex7^neo/neo); assay: 2 week comparison of plasmalogen precursors: plasmalogen levels in plasma and liver (LC-MS); type: in vivo, mouse
Protocol: Pex7 homozygous hypomorphic animals (Pex7^neo/neo) were used as a model of rhizomelic chondrodysplasia punctata (RCDP). Mice were dosed with either PPI-1011 or PPI-1040 at equimolar concentrations of 100 mg/Kg and 89.7 mg/Kg respectively. PPI-1011 was formulated in Neobee M-5, at a concentration of 12.5 mg/mL and stored at −20° C. until the first treatment day after which point the remaining formulation was stored at 4° C. Oral gavage volumes were adjusted by mouse weight to ensure a 100 mg/kg dose. PPI-1040 was stored in a sealed ampoule in solution with dichloromethane under argon gas until immediately before use. At time of treatment the ampoule was opened and dichloromethane was evaporated off under nitrogen gas for 10 minutes. Neobee M-5 was then added and the solution and vortexed to generate a 22.4 mg/mL formulation. Animals were dosed via intraperitoneal injections with doses adjusted by weight to ensure an 89.7 mg/Kg dose to each animal. Animals were sacrificed 24 hours after the ninth treatment (week 1-Monday to Friday and week 2-Monday to Thursday). Blood samples were collected in EDTA tubes and then spun down in a clinical centrifuge. Plasma samples were stored at −80° C. until thawed for analysis. Tissue samples were harvested and flash frozen in liquid nitrogen and then stored at −80° C. All tissue samples were homogenized using liquid nitrogen, generating a fine powder.
Plasma aliquots of 20 μL were analyzed, while tissues were aliquoted with anti-static polypropylene disposable milligram scoops prior to analysis. Water (200 μL) was added and samples were ice bath sonicated for 30 mins prior to the addition of 600 μL of ethyl acetate. Samples were mixed at 2000 rpm for 15 mins followed by a 10 min centrifugation at 3500 rpm. Tissue samples were diluted into an ethyl acetate (1:4) containing labeled internal standards [^13C-PlsEtn (C37^13C6H74NO7P) and ^13C-PtdEtn (C24^13C19H74NO8P)]. Water (80 μL) was added and samples were again stirred at 2000 rpm for 15 mins followed by a 2 min centrifugation at 3500 rpm. High-throughput analysis method was based on multiple reaction monitoring of one parent/fragment transition for the ion pairs, performed using liquid chromatography-mass spectrometry.

Pex7 hypomorph/null mice [4] = assay: 4 weeks oral treatment of Pex7 hypomorph/null animals: plasmalogen levels in plasma and tissues; type: in vivo, mouse; conditions: 50 mg/kg oral gavage, 5 days per week
Description: as §1
Tissue samples frozen by submersion in liquid nitrogen were homogenized using the Covaris Cryoprep resulting in a fine powder. The powder was then aliquoted using anti-static polypropylene disposable milligram scoops (TWD Tradewinds) resulting in 4-6 mg of tissue per 1.4 ml Thermo matrix tubes. Weights were recorded and metabolite levels were normalized per mg of tissue. HPLC grade water (50 μl) was added into each tube and samples were snap frozen in liquid nitrogen and then stored at −80° C. until extraction. On the day of the extraction, tissue samples were thawed to room temperate and sonicated for 15 mins in an ice bath before mixing at 2000 rpm for a 5 minute and then adding 600 μL of ethyl acetate. Lipids were extracted into ethyl acetate by mixing at 1750 rpm for 1 hr followed by a 10 min centrifugation at 3500 rpm to obtain a clear ethyl acetate layer. Tissue lipid extracts were diluted into an ethyl acetate stock (brain regions diluted 1:10, peripheral tissues 1:5) containing labeled internal standard [^13C-PlsEtn (C37^13C6H74NO7P). Water (40 μL) was added to the diluted extracts and samples were stirred at 1500 rpm for 1 hr followed by a 2 min centrifugation at 3500 rpm.
Plasma extraction was performed on 20 μL aliquots in 1.4 ml Thermo matrix tubes. Lipids were extracted by adding HPLC grade water (50 μl) and ethyl acetate containing labeled internal standard [^13C-PlsEtn (C37^13C6H74NO7P) at 0.2 μg/mL (500 μL) to each plasma sample and then mixing at 1750 rpm for 1 hr followed by a 2 min centrifugation at 3500 rpm for phase separation.
A 100 μL aliquot of the ethyl acetate layer was analyzed using FI-MS/MS on a API4000™ mass spectrometer (Applied Biosystems) coupled with Agilent 1100 HPLC pump and auto sampler. Each transition was scanned for 50 ms with a total acquisition time per sample of 2 min. ethyl acetate:methanol:water ratio of 80:15:5 at a flow rate of 600 μL/min was used as the mobile phase. All standards and stable isotopes used were >95% pure and manufactured by Med-Life Discoveries LP. All the solvents used above were HPLC grade. All samples were analyzed in triplicate to control for any variation resulting from instrument variability. Stable isotope ratios for each analyte were calculated for all tissue and plasma samples (Table 2).

Pex7 hypomorphic mice = conditions: 13C-labeled version of PPI-1011; cited from earlier work
[5] = PPI-1011 100 mg/Kg oral or PPI-1040 89.7 mg/Kg intraperitoneal, 2 weeks

Row | Compound | clinical improvement (Pex7 hypomorphic animals) | plasmalogen content in red blood cells (Pex7 hypomorphic animals) | plasmalogen levels in brain and nervous system tissues (Pex7 null animals) | plasmalogen levels in erythrocytes and peripheral tissues (Pex7 null animals) | open field: time active (Pex7 hypomorph/null mice [1]) | open field: total distance traveled (Pex7 hypomorph/null mice [1]) | oral bioavailability [2] | plasma and tissue PlsEtn levels [2] | levels of the target plasmalogen (16:0/22:6) in the plasma ([3]; PPI-1011 100 mg/Kg oral gavage, 2 weeks (9 treatments)) | 16:0 plasmalogen pool in liver [3, 5] | target plasmalogen (16:0/22:6) levels in liver [3, 5] | liver plasmalogen levels (Pex7 hypomorph/null mice [4]) | plasma plasmalogen levels (all species measured) (Pex7 hypomorph/null mice [4]) | plasmalogen levels in tissues (peripheral and brain) (Pex7 hypomorph/null mice [4]) | incorporation of labeled plasmalogen into nervous system tissue (Pex7 hypomorphic mice) | incorporation of labeled plasmalogen into tissues (Pex7 hypomorphic mice)
1 | CCCCCCCCCCCCCCCCCCOCC(O)CO (racemic) [Batyl alcohol, 1-O-octadecyl-rac glycerol] | not associated with clinical improvement | partial increase | very limited increases | augmentation of plasmalogen levels in erythrocytes and peripheral tissues | – | – | – | – | – | – | – | – | – | – | – | –
2 | CC/C=C\C/C=C\C/C=C\C/C=C\C/C=C\C/C=C\CCC(=O)OC(COCCCCCCCCCCCCCCCC)COC(=O)CCCC[C@@H]1CCSS1 (stereo partly shown) [PPI-1011, reference compound] | – | – | – | – | did not result in a decrease in activity levels | did not result in a decrease in activity levels | orally bioavailable | capable of augmenting plasma and tissue PlsEtn levels | increase observed | no increase in this pool was observed | unable to augment levels to control levels | did not increase the levels of any plasmalogen species in the liver | did not result in significant augmentation of any plasmalogen species measured; also recorded: ineffective at augmenting plasmalogen levels; also recorded: significantly below baseline | did not increase the levels of any plasmalogen species in any of the tissues tested | low | incorporated into peripheral tissues, as well as the neocortex and eye
